From paper PMC9405973, “Altered Conformational Landscape upon Sensing Guanine Nucleotides in a Disease Mutant of Elongation Factor-like 1 (EFL1) GTPase” (Biomolecules, 2022) come the findings set out here.

SMILES strings stand for the structures.

The target of test [1] is T1, Efl1 R1086Q in complex with Sdo1 and 60S subunits (Saccharomyces cerevisiae, UniProt P53893, R1086Q).
T1 construct: made in house; host or cells: Efl1: Saccharomyces cerevisiae; Sdo1: Escherichia coli C41; 60S subunits purified from S. cerevisiae strain JD1370
T1 sequence (P53893 1-1110 R1086Q): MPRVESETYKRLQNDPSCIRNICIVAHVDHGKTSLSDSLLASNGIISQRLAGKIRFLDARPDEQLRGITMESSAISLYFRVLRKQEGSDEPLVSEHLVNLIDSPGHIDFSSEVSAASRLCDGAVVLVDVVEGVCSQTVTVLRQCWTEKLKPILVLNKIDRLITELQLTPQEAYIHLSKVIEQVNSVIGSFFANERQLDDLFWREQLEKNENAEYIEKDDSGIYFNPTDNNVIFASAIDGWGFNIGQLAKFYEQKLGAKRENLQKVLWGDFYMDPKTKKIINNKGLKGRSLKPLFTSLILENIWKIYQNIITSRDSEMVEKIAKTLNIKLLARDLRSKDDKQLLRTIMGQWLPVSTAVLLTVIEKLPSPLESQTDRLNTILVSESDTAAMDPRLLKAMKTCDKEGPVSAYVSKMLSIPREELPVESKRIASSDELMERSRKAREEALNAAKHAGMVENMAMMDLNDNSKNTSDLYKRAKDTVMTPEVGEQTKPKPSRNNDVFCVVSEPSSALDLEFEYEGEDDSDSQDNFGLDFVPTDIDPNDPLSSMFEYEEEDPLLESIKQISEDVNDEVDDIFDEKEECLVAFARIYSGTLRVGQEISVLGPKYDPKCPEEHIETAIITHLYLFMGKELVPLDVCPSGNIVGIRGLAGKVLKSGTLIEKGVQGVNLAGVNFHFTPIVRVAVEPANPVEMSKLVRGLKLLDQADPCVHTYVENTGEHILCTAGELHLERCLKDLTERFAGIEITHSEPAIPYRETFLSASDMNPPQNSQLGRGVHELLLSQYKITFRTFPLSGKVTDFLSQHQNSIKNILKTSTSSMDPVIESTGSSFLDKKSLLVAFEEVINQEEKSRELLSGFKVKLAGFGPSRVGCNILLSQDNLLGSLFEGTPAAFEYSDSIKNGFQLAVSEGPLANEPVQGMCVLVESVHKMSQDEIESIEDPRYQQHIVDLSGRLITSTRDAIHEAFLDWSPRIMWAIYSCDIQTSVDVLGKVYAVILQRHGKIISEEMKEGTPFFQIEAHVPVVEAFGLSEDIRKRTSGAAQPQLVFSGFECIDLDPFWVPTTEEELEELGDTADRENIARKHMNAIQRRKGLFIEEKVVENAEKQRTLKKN
T1 sequence (Q07953 1-250 partner): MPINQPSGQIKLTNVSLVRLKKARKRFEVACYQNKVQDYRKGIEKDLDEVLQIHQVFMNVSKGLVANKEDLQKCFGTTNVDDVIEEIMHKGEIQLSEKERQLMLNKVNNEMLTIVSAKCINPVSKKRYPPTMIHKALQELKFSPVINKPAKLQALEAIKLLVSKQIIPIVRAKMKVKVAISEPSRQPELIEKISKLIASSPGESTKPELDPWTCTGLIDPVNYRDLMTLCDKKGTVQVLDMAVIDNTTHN
The experiment in a line: Steady state fluorescence binding of mant-GTP to Efl1 R1086Q in complex with Sdo1 and 60S subunits. Conditions: 25 °C, one-binding-site model; read-out: dissociation constant (Kd). As for the experimental part:
We measured the binding of different Efl1 constructs present in complex with Sdo1 and 60S subunits to the fluorescence GTP analogue, mant-GTP, by following the increase in the fluorescence signal after excitation at 355 nm. Fluorescence intensities were plotted as a function of increasing nucleotide concentrations, and the dissociation constant (Kd) was calculated by fitting the data to a one-binding-site model (Supplementary Figure S1B).
Hydrolysis of GTP was measured using the Enzchek Phosphate Assay kit (Molecular Probes) as described by Webb. Standard reactions consisted of 100 µL containing 6 µM of Efl1 R1086Q and Efl1 L910K, 0.3 mM MESG, 1.0 U purine nucleoside phosphorylase (PNP) and the indicated amounts of GTP. […]
Reactions were initiated and the GTPase was added after 3 min. Time courses were followed by recording the change in absorbance at 360 nm in a Cary 60 UV -Vis spectrophotometer (Agilent Technologies). Background absorbance was recorded prior to the addition of the GTPase and subtracted from the sample signals. The slope of the measured time courses corresponded to the GTP hydrolysis rate. […] Data were analysed by nonlinear regression to the M ichaelis-Menten equation with the program Origin Version 5.0 (OriginLab, Co., Northampton, MA). […]
Steady state fluorescence measurements […]
Maximum emission at 440 nm was replotted as a function of nucleotide concentration and analysed

The next test concerns wild-type Efl1. The experiment in a line: ITC: binding of guanine nucleotides or Sdo1 to wild-type Efl1 (data of ref 6). On the set-up: species or system Saccharomyces cerevisiae. Conditions: native protein. In general terms: In ITC the heat of successive injections is recorded.

`CNc1ccccc1C(=O)O[C@H]1[C@@H](O)[C@H](n2cnc3c(=O)[nH]c(N)nc32)O[C@@H]1COP(=O)(O)OP(=O)(O)OP(=O)(O)O` [mant-GTP]: the Kd in test [1] was 32 µM.
For `Nc1nc2c(ncn2[C@@H]2O[C@H](COP(=O)(O)OP(=O)(O)OP(=O)(O)O)[C@@H](O)[C@H]2O)c(=O)[nH]1` [GTP], in the test with wild-type Efl1, the “overall heat-capacity change to drive the protein into ternary complex GTPase•GTP•Sdo1” value is −950 cal mol^−1 K^−1.

By Kd is commonly meant the free concentration of one partner at which half of the binding sites on the other are occupied at equilibrium, for simple one-to-one binding.
